# Measured values published in patent US12528790B2, “Amide derivative having antiviral activity” (Shionogi & Co., Ltd., priority 2020, dated 2026).
# Like-named read-outs stand apart in the source and are kept apart here.
# Tests used:
# [1] = system: RSV B (Wash/18537 strain); experiment: In vitro CPE (CytoPathic Effect) inhibition effect evaluation test, RSV type B; format: cell-based
# Summary of the method: (§1)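 HEp-2 cells (2.4×10^5 cells/mL, 2% FBS E-MEM) were infected with RSV alongside 3-fold compound dilutions and incubated at 37 °C, 4 days for A2 and 5 days for B Wash/18537. Viable cells quantified by CellTiter-Glo 2.0 luminescence; EC50 by nonlinear regression as 50% CPE inhibition.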
# [2] = system: RSV A2 strain; experiment: In vitro CPE (CytoPathic Effect) inhibition effect evaluation test, RSV type A; format: cell-based
# Summary of the method: as §1
# [3] = inhibitory effect against RSV type B, CPE inhibition, read-out: EC50
# [4] = inhibitory effect against RSV type A (RSV A2 strain), HEp-2 cells, CPE inhibition, read-out: EC50
# [5] = human respiratory syncytial virus, inhibitory effect against RSV type B, CPE inhibition, read-out: EC50
# [6] = human respiratory syncytial virus, inhibitory effect against RSV type A (RSV A2 strain), HEp-2 cells, CPE inhibition, read-out: EC50
# [7] = human respiratory syncytial virus, HEp-2, 120 h, HEp-2 cells, RSV B (Wash/18537 strain), 5 days, CellTiter-Glo, read-out: EC50, inhibitory effect against RSV type B (CPE inhibition)
# [8] = human respiratory syncytial virus, HEp-2, 96 h, read-out: EC50, inhibitory effect against RSV type A (CPE inhibition)
Structure (SMILES),"EC50 [1, 5] [nM]","EC50 [2, 6] [nM]",further results
COc1ccc2c(n1)C1(CCOCC1)CN2c1ncc(C(=O)NC2(C(=O)O)C3CC4CC(C3)CC2C4)c(C(F)(F)F)n1 (stereo not drawn) [Compound I-91],–,–,"EC50 [1, 3]: 10 to 100 nM; EC50 [2, 4]: < 10 nM"
O=C(NC1(C(=O)O)C2CC3CC(C2)CC1C3)c1cnc(N2CC3(CCOCC3)c3cc(OC4CCS(=O)(=O)CC4)ccc32)nc1C(F)(F)F (stereo not drawn) [Compound I-203],< 10,< 10,–
CC(F)(F)c1nc(N2CC3(CCOCC3)c3cc(O[C@H]4CC[C@H](c5ncc(F)cn5)CC4)ccc32)ncc1C(=O)NC1(C(=O)O)C2CC3CC(C2)CC1C3 (stereo partly drawn) [Compound I-562],< 10,< 10,–
O=C(NC1(C(=O)O)C2CC3CC(C2)CC1C3)c1cnc(-c2cn(C3CCC(F)(F)CC3)c3cc(OC4CCC(N5CC(F)(F)C5)C4)ccc23)nc1C(F)(F)F (stereo not drawn) [Compound I-451],10 to 100,< 10,–
O=C(NC1(C(=O)O)C2CC3CC(C2)CC1C3)c1cnc(N2CCc3cc(OC4CCN(c5ncccn5)CC4)ccc32)nc1C(F)(F)F (stereo not drawn) [Compound I-45],–,–,"EC50 [1, 3]: < 10 nM; EC50 [2, 4]: < 10 nM"
CC(F)(F)c1nc(N2CC3(CCCCC3)c3cc(C(=O)N4CCN(c5ncccn5)CC4)ccc32)ncc1C(=O)NC1(C(=O)O)C2CC3CC(C2)CC1C3 (stereo not drawn) [Compound I-453],< 10,< 10,–
O=C(NC1(C(=O)O)C2CC3CC(C2)CC1C3)c1cnc(-c2cn(C3CCC(F)(F)CC3)c3cc(OC4CCN(C5COC5)CC4)ccc23)nc1C(F)(F)F (stereo not drawn) [Compound I-234],10 to 100,< 10,–
"O=C(NC1(C(=O)O)C2CC3CC(C2)CC1C3)c1cnc(-c2cn(C3CCC(F)(F)CC3)c3cc(OC4CCC(OC5CC5)CC4)ccc23)nc1C(F)(F)F (single isomer, unassigned) [Compound I-480]",–,–,"EC50 [1, 3]: 10 to 100 nM; EC50 [2, 4]: < 10 nM"
CC(F)(F)c1nc(-c2cn(C3CCC(F)(F)CC3)c3cc(O[C@H]4CC[C@H](N5CC(F)(F)C5)CC4)ccc23)ncc1C(=O)N[C@]1(C(=O)O)[C@@H]2CC3C[C@H]1C[C@@](F)(C3)C2 [Compound I-611],< 10,< 10,–
O=C(NC1(C(=O)O)C2CC3CC(C2)CC1C3)c1ccc(-c2cn(C3COC3)c3cc(OC4CCN(c5ncccn5)CC4)ccc23)nc1C(F)(F)F (stereo not drawn) [Compound I-151],< 10,< 10,–
CC(F)(F)c1nc(N2CC3(CCOCC3)c3cc(O[C@H]4CC[C@H](N5CC(F)(F)C5)CC4)ccc32)ncc1C(=O)NC1(C(=O)O)C2CC3CC(C2)CC1C3 (stereo partly drawn) [Compound I-506],< 10,< 10,–
"CC(F)(F)c1nc(-c2cn(C3CCC(F)(F)CC3)c3cc(O[C@H]4C[C@@H](N5CC(F)(F)C5)C4)ccc23)ncc1C(=O)NC1(C(=O)O)C2CC3CC(C2)CC1C3 (single isomer, unassigned) [Compound I-619]",< 10,< 10,–
O=C(NC1(C(=O)O)C2CC3CC(C2)CC1C3)c1ccc(-c2cn(C3CCC(F)(F)CC3)c3c(F)c(OC4CCN(c5ncccn5)CC4)ccc23)nc1C(F)(F)F (stereo not drawn) [Compound I-227],< 10,< 10,–
CC(F)(F)c1nc(N2CC3(CCOCC3)c3cc(OC4CN(CC(F)(F)F)C4)ccc32)ncc1C(=O)NC1(C(=O)O)C2CC3CC(C2)CC1C3 (stereo not drawn) [Compound I-592],< 10,< 10,–
O=C(N[C@]1(C(=O)O)[C@@H]2CC3C[C@H]1C[C@@](F)(C3)C2)c1cnc(-c2cn(C3CCC(F)(F)CC3)c3cc(O[C@H]4CC[C@H](N5CC(F)(F)C5)CC4)ccc23)nc1C(F)(F)F [Compound I-479],< 10,< 10,–
CC(F)(F)CN1CCC(Oc2ccc3c(-c4ncc(C(=O)NC5(C(=O)O)C6CC7CC(C6)CC5C7)c(C(C)(F)F)n4)cn(C4CCOCC4)c3c2)CC1 (stereo not drawn) [Compound I-612],< 10,< 10,–
O=C(NC1(C(=O)O)C2CC3CC(C2)CC1C3)c1cnc(N2CC3(CCCCC3)c3cc(OC4CCN(CC(F)F)CC4)ccc32)nc1C(F)(F)F (stereo not drawn) [Compound I-482],10 to 100,< 10,–
O=C(NC1(C(=O)O)C2CC3CC(C2)CC1C3)c1cnc(N2CC3(CCOCC3)c3cc(OC4CCN(c5ncccn5)CC4)ccc32)nc1C(F)(F)F (stereo not drawn) [Compound I-82],–,–,"EC50 [1, 7]: 0.34 nM; EC50 [2, 8]: 0.27 nM"

Structure (SMILES),"EC50 [1, 5] [nM]","EC50 [2, 6] [nM]",further results
CC(F)(F)c1nc(-c2cn(C3CCC(F)(F)CC3)c3cc(O[C@H]4CC[C@H](N5CC(F)(F)C5)CC4)ccc23)ncc1C(=O)NC1(C(=O)O)C2CC3CC(C2)CC1C3 (stereo partly drawn) [Compound I-481],< 10,< 10,–
"Cn1ncc2c1CCC(Oc1ccc3c(c1)C1(CCOCC1)CN3c1ncc(C(=O)NC3(C(=O)O)C4CC5CC(C4)CC3C5)c(C(F)(F)F)n1)C2 (single isomer, unassigned) [Compound I-190]",< 10,< 10,–
CC(F)(F)c1nc(N2CC3(CCOCC3)c3cc(O[C@H]4CC[C@H](N5CC(F)(F)C5)CC4)ncc32)ncc1C(=O)N[C@]1(C(=O)O)[C@@H]2CC3C[C@H]1C[C@@](F)(C3)C2 [Compound I-601],< 10,< 10,–
O=C(NCC(F)(F)F)c1ccc2c(c1)C1(CCOCC1)CN2c1ncc(C(=O)NC2(C(=O)O)C3CC4CC(C3)CC2C4)c(C(F)(F)F)n1 (stereo not drawn) [Compound I-483],100 to 5000,< 10,–
O=C(NC1(C(=O)O)C2CC3CC(C2)CC1C3)c1cnc(N2CC3(CCCCC3)c3cc(OC4CCN(c5ncccn5)CC4)ccc32)nc1C(F)(F)F (stereo not drawn) [Compound I-214],< 10,< 10,–
O=C(NC1(C(=O)O)C2CC3CC(C2)CC1C3)c1cnc(N2CC3(CCCC3)c3cc(O[C@@H]4CCN(CC(F)(F)F)C4)ccc32)nc1C(F)(F)F (stereo partly drawn) [Compound I-566],< 10,< 10,–
CCC(CC)n1cc(-c2ncc(C(=O)NC3(C(=O)O)C4CC5CC(C4)CC3C5)c(C(C)(F)F)n2)c2ccc(O[C@H]3CC[C@H](N4CC(F)(F)C4)CC3)cc21 (stereo partly drawn) [Compound I-570],–,–,"EC50 [1, 7]: 2.1 nM; EC50 [2, 8]: 0.7 nM"
CC(F)(F)c1nc(-c2cn(C3CCC4(CC3)COC4)c3cc(O[C@H]4CC[C@H](N5CC(F)(F)C5)CC4)ccc23)ncc1C(=O)NC1(C(=O)O)C2CC3CC(C2)CC1C3 (stereo partly drawn) [Compound I-580],< 10,< 10,–
COC[C@@H](C)n1cc(-c2ncc(C(=O)NC3(C(=O)O)C4CC5CC(C4)CC3C5)c(C(F)(F)F)n2)c2ccc(O[C@H]3CC[C@@H](N4CC(F)(F)C4)CC3)cc21 (stereo partly drawn) [Compound I-585],< 10,< 10,–
O=C(NC1(C(=O)O)C2CC3CC(C2)CC1C3)c1cnc(-c2cn(C3CCC4(CC3)COC4)c3cc(O[C@H]4CC[C@H](N5CC(F)(F)C5)CC4)ccc23)nc1C(F)(F)F (stereo partly drawn) [Compound I-498],< 10,< 10,–
CC(F)(F)c1nc(N2CC3(CCOCC3)c3cc(OC4CCN(C5CS(=O)(=O)C5)CC4)ccc32)ncc1C(=O)NC1(C(=O)O)C2CC3CC(C2)CC1C3 (stereo not drawn) [Compound I-593],< 10,< 10,–
O=C(NC1(C(=O)O)C2CC3CC(C2)CC1C3)c1cnc(N2CC3(CCCCC3)c3cc(OC4CN(CC(F)(F)F)C4)ccc32)nc1C(F)(F)F (stereo not drawn) [Compound I-495],< 10,< 10,–
CCC(C)n1cc(-c2ncc(C(=O)NC3(C(=O)O)C4CC5CC(C4)CC3C5)c(C(F)(F)F)n2)c2ccc(O[C@H]3CC[C@H](N4CC(F)(F)C4)CC3)cc21 (stereo partly drawn) [Compound I-617],< 10,< 10,–
"O=C(NC1(C(=O)O)C2CC3CC(C2)CC1C3)c1cnc(-c2cn(C3CCC(F)CC3)c3cc(O[C@H]4CC[C@H](N5CC(F)(F)C5)CC4)ccc23)nc1C(F)(F)F (single isomer, unassigned) [Compound I-509]",< 10,< 10,–
"COc1cccc(COc2ccc3c(c2)CCN3c2ncc(C(=O)NC3(C(=O)O)CC4CCC3C4)c(C(F)(F)F)n2)c1 (single isomer, unassigned) [Compound I-16]",10 to 100,< 10,–
O=C(NC1(C(=O)O)C2CC3CC(C2)CC1C3)c1cnc(N2CC3(CCOCC3)c3cc(C(=O)N4CC(C(F)(F)F)C4)ccc32)nc1C(F)(F)F (stereo not drawn) [Compound I-490],< 10,< 10,–
O=C(NC1(C(=O)O)C2CC3CC(C2)CC1C3)c1ccc(-c2cn(C(=O)OC3CCOCC3)c3cc(OC4CCN(c5ncccn5)CC4)ccc23)nc1C(F)(F)F (stereo not drawn) [Compound I-152],< 10,< 10,–
O=C(NC1(C(=O)O)C2CC3CC(C2)CC1C3)c1ccc(-c2cn(C3CCC(F)(F)CC3)c3cc(OC4CCN(c5ncccn5)CC4)c(F)cc23)nc1C(F)(F)F (stereo not drawn) [Compound I-221],100 to 5000,< 10,–
